SMILES strings stand for the structures.

For one experiment, the system named is MvfR regulon. Put plainly: pqsA gene expression (pqsA-GFP reporter). The settings on record: Pseudomonas aeruginosa, read-out: pqsA @10 uM (%), compound at 10 uM. The format is cell-based, P. aeruginosa. On the procedure:
Experiments were performed to identify compounds that inhibit the MvfR regulon without altering growth, ultimately attenuating P. aeruginosa infection. MvfR is a LysR-type transcriptional regulator that directs HAQs synthesis, including that of its ligands, 4-hydroxy-2-heptylquinoline (HHQ) and 3,4-dihydroxy-2-heptylquinoline (PQS).
MvfR promotes the production of HAQs by binding to and activating the pqs operon, which encodes enzymes for HAQ synthesis. Anthranilic acid (AA), derived from the phnAB, kynABU, and trpEG pathways, is the precursor for HAQs. pqsA encodes an anthranilate-coenzyme A ligase, which activates anthranilic acid and catalyzes the first committed step to HAQ production. The exact roles of PqsB and PqsC are unknown, though both show homology to acyl-carrier-proteins and both are required for HHQ and PQS production. […] The final gene of the operon, pqsE encodes for a putative hydrolase, and while the protein is not required for the synthesis of HAQs, it is necessary for pyocyanin production.
Nanomolar levels of most of these MvfR antagonists impeded the activity of MvfR and in consequence the MvfR virulence regulated ACRP functions, including: (1) the production of the important pro-acute P. aeruginosa virulence factor pyocyanin (see e.g., FIG. 9A) the efficacy of two of these potent inhibitors, D57 and D88, was also confirmed by testing many different MDR P. aeruginosa clinical isolates (see e.g., FIG. 11A-11B), providing further confidence of their inhibitory potency; (2) the expression of the genes that encode the enzymes catalyzing the synthesis of both pro-acute and pro-persistence MvfR-regulated virulence molecules, 4-hydroxyl-2-alkyl-quinolines (HAQs) and 2-aminoacetophenon (2-AA), as assessed by pqsAGFP reporter gene expression (see e.g., FIG. 9B) and HAQ production showing the levels of MvfR inducers/ligands HHQ and PQS as well as of the molecules critical for biofilm and Antibiotic tolerant/persiters cells formation HQNO and 2-AA (see e.g., FIG. 9C); (3) AT/P cell formation (see e.g., FIGS. 11A, 12A); (4) biofilm formation (see e.g., FIG. 12B); and (5) biofilm dispersal of preformed biofilm by potentiating antibiotic action (see e.g., FIG. 11B).
With `N#Cc1ccc(/C=C/C(=O)Nc2ccc(C#N)cc2)cc1` [Compound 98], the activity at 10 µM was found to be 114%.
Still for that read-out and setting: in the case of `N#Cc1ccc(NC(=O)CC(=O)Cc2ccc(F)cc2)cc1` [Compound 99] it was 96.3%; in that of `N#Cc1ccc(NC(=O)CC(=O)Nc2ccncc2)cc1` [Compound 100], 88.9%; in that of `N#Cc1ccc(NC(=O)/C=C/C(=O)Nc2ccc(F)cc2)cc1` [Compound 101], 96.3%.
On the same count and under the same terms, for `N#Cc1ccc(NC(=O)C2(C(=O)Nc3ccc(C#N)cc3)CC2)cc1` [Compound 102] the value was 93.4%.
Same read-out and setting: for `N#Cc1ccc(NC(=O)CC(O)Cc2ccc(F)cc2)cc1` (stereo not shown) [Compound 104] the value was 97.3%; for `N#Cc1ccc2c(c1)OCCN2C(=O)CC(=O)Nc1ccc(Oc2ccccc2)cc1` [Compound 105], 47.3%; for `N#Cc1ccc(NC(=O)CC(=O)Nc2ccc(C#N)nc2)cn1` [Compound 106], 80%.
On to `N#Cc1ccc(NC(=O)CC(=O)Nc2ccc(Oc3ccccc3)cc2)c(N)c1` [Compound 107], for which the activity at 10 µM came to 2.1%.
Still for that read-out and setting: for `CC(F)(C(=O)Nc1ccc(C#N)cc1)C(=O)Nc1ccc(C#N)cc1` [Compound 109] the value was 87%; for `N#Cc1ccc(NC(=O)C(F)C(=O)Nc2ccc(C#N)cc2)cc1` [Compound 111], 62.8%; for `N#Cc1ccc(NC(=O)C(F)(F)C(=O)Nc2ccc(C#N)cc2)cc1` [Compound 112], 95.4%.
On the same count and under the same terms, for `O=C(CC(=O)Nc1ccc(C(F)(F)F)cc1)Nc1ccc(Oc2ccccc2)cc1` [Compound 113] the value was 37.2%; for `N#Cc1ccc(NC(=O)C(N)C(=O)Nc2ccc(C#N)cc2)cc1` [Compound 114], 58.9%.

Staying with this experiment, now noted: Pseudomonas aeruginosa, read-out: pqsA @50 uM (%), compound at 50 uM.
Regarding `N#Cc1ccc(NC(=O)CC(=O)Nc2ccc(C#N)nc2)cn1` [Compound 106], the activity at 50 µM turned out to be 38.9%.
In the case of `CC(F)(C(=O)Nc1ccc(C#N)cc1)C(=O)Nc1ccc(C#N)cc1` [Compound 109], the activity at 50 µM came to 84.9%.
On the same count and under the same terms, for `N#Cc1ccc(NC(=O)C(F)C(=O)Nc2ccc(C#N)cc2)cc1` [Compound 111] the value was 41.8%; for `N#Cc1ccc(NC(=O)C(F)(F)C(=O)Nc2ccc(C#N)cc2)cc1` [Compound 112], 95.1%; for `O=C(CC(=O)Nc1ccc(C(F)(F)F)cc1)Nc1ccc(Oc2ccccc2)cc1` [Compound 113], 28.8%.
As for `N#Cc1ccc(NC(=O)C(N)C(=O)Nc2ccc(C#N)cc2)cc1` [Compound 114], the activity at 50 µM stood at 1.75%.

The experiment is the same for the next values; noted with them: compound at 50 uM; listed as D92.
As to `N#Cc1ccc(NC(=O)CC(=O)Nc2ccc(Oc3ccccc3)cc2)c(N)c1` [Compound 107], the “pqsA @50 uM (%)” value is listed as 1.40%.

Another experiment concerns MvfR regulon. Put plainly: Quantification of pyocyanin (OD520nm of chloroform-extracted cultures). It is filed as cell-based, P. aeruginosa. The settings on record: Pseudomonas aeruginosa, read-out: IC50 pyocyanin (μM).
Take `N#Cc1ccc2c(c1)OCCN2C(=O)CC(=O)Nc1ccc(Oc2ccccc2)cc1` [Compound 105]: the IC50 is 2.78 µM.

The same experiment, now with this note: Pseudomonas aeruginosa, read-out: pyocyanin @1 uM (%), compound at 1 uM.
Regarding `N#Cc1ccc(/C=C/C(=O)Nc2ccc(C#N)cc2)cc1` [Compound 98], the activity at 1 µM was determined as 94.5%.
The same measure, in the same setting: for `N#Cc1ccc(NC(=O)CC(=O)Cc2ccc(F)cc2)cc1` [Compound 99] the value was 92%; for `N#Cc1ccc(NC(=O)CC(=O)Nc2ccncc2)cc1` [Compound 100], 66.3%.
On the same count and under the same terms, in the case of `N#Cc1ccc2c(c1)OCCN2C(=O)CC(=O)Nc1ccc(Oc2ccccc2)cc1` [Compound 105] it was 68%.
Consider `N#Cc1ccc(NC(=O)CC(=O)Nc2ccc(C#N)nc2)cn1` [Compound 106], for which the activity at 1 µM was 90%.
The same measure, in the same setting: for `N#Cc1ccc(NC(=O)CC(=O)Nc2ccc(Oc3ccccc3)cc2)c(N)c1` [Compound 107] the value was 75%.
On the same count and under the same terms, for `CC(F)(C(=O)Nc1ccc(C#N)cc1)C(=O)Nc1ccc(C#N)cc1` [Compound 109] the value was 98.6%.
The same measure, in the same setting: for `N#Cc1ccc(NC(=O)C(F)C(=O)Nc2ccc(C#N)cc2)cc1` [Compound 111] the value was 91.7%.
For `N#Cc1ccc(NC(=O)C(F)(F)C(=O)Nc2ccc(C#N)cc2)cc1` [Compound 112], the activity at 1 µM was 101%.
On the same count and under the same terms, for `O=C(CC(=O)Nc1ccc(C(F)(F)F)cc1)Nc1ccc(Oc2ccccc2)cc1` [Compound 113] the value was 68%; for `N#Cc1ccc(NC(=O)C(N)C(=O)Nc2ccc(C#N)cc2)cc1` [Compound 114], 94.9%.

Still in this experiment, the particulars now being: Pseudomonas aeruginosa, read-out: pyocyanin @10 uM (%), compound at 10 uM.
For `N#Cc1ccc(/C=C/C(=O)Nc2ccc(C#N)cc2)cc1` [Compound 98], the activity at 10 µM was found to be 108%.
On the same count and under the same terms, for `N#Cc1ccc(NC(=O)CC(=O)Cc2ccc(F)cc2)cc1` [Compound 99] the value was 115%; for `N#Cc1ccc(NC(=O)CC(=O)Nc2ccncc2)cc1` [Compound 100], 101%; for `N#Cc1ccc2c(c1)OCCN2C(=O)CC(=O)Nc1ccc(Oc2ccccc2)cc1` [Compound 105], 32%.
Still for that read-out and setting: for `N#Cc1ccc(NC(=O)CC(=O)Nc2ccc(C#N)nc2)cn1` [Compound 106] the value was 75.6%.
Same read-out and setting: in the case of `N#Cc1ccc(NC(=O)CC(=O)Nc2ccc(Oc3ccccc3)cc2)c(N)c1` [Compound 107] it was 12.1%.
With `CC(F)(C(=O)Nc1ccc(C#N)cc1)C(=O)Nc1ccc(C#N)cc1` [Compound 109], the activity at 10 µM stood at 78.2%.
The same measure, in the same setting: for `N#Cc1ccc(NC(=O)C(F)C(=O)Nc2ccc(C#N)cc2)cc1` [Compound 111] the value was 50.8%.
Same read-out and setting: in the case of `N#Cc1ccc(NC(=O)C(F)(F)C(=O)Nc2ccc(C#N)cc2)cc1` [Compound 112] it was 87.1%; in that of `O=C(CC(=O)Nc1ccc(C(F)(F)F)cc1)Nc1ccc(Oc2ccccc2)cc1` [Compound 113], 60.9%.
With `N#Cc1ccc(NC(=O)C(N)C(=O)Nc2ccc(C#N)cc2)cc1` [Compound 114], the activity at 10 µM turned out to be 66.1%.

The same experiment, now with this note: Pseudomonas aeruginosa, read-out: pyocyanin @50 uM (%), compound at 50 uM.
With `N#Cc1ccc(/C=C/C(=O)Nc2ccc(C#N)cc2)cc1` [Compound 98], the activity at 50 µM is 114%.
The same measure, in the same setting: in the case of `N#Cc1ccc(NC(=O)CC(=O)Cc2ccc(F)cc2)cc1` [Compound 99] it was 102%; in that of `N#Cc1ccc(NC(=O)CC(=O)Nc2ccncc2)cc1` [Compound 100], 81.9%.
Still for that read-out and setting: for `N#Cc1ccc(NC(=O)/C=C/C(=O)Nc2ccc(F)cc2)cc1` [Compound 101] the value was 87.8%; for `N#Cc1ccc(NC(=O)C2(C(=O)Nc3ccc(C#N)cc3)CC2)cc1` [Compound 102], 96.8%.
Turning to `N#Cc1ccc(NC(=O)CC(O)Cc2ccc(F)cc2)cc1` (stereo not shown) [Compound 104], the activity at 50 µM was 95.3%.
Same read-out and setting: in the case of `N#Cc1ccc2c(c1)OCCN2C(=O)CC(=O)Nc1ccc(Oc2ccccc2)cc1` [Compound 105] it was 11.4%; in that of `N#Cc1ccc(NC(=O)CC(=O)Nc2ccc(C#N)nc2)cn1` [Compound 106], 43.1%.
In the case of `CC(F)(C(=O)Nc1ccc(C#N)cc1)C(=O)Nc1ccc(C#N)cc1` [Compound 109], the activity at 50 µM turned out to be 51.5%.
On the same count and under the same terms, in the case of `N#Cc1ccc(NC(=O)C(F)C(=O)Nc2ccc(C#N)cc2)cc1` [Compound 111] it was 34%.
The same measure, in the same setting: in the case of `N#Cc1ccc(NC(=O)C(F)(F)C(=O)Nc2ccc(C#N)cc2)cc1` [Compound 112] it was 93.6%; in that of `O=C(CC(=O)Nc1ccc(C(F)(F)F)cc1)Nc1ccc(Oc2ccccc2)cc1` [Compound 113], 42.1%.
Same read-out and setting: for `N#Cc1ccc(NC(=O)C(N)C(=O)Nc2ccc(C#N)cc2)cc1` [Compound 114] the value was 2.85%.

The experiment is the same for the next values; noted with them: compound at 50 uM; listed as D92.
With `N#Cc1ccc(NC(=O)CC(=O)Nc2ccc(Oc3ccccc3)cc2)c(N)c1` [Compound 107], the “pyocyanin @50 uM (%)” value amounted to 3.51%.

The record behind these values is patent US11731946B2, “Broad spectrum antivirulence, anti-persistence compounds” (priority 2017, dated 2023).
